≈ marks a conversion by molar mass, not a printed value. Where “and” joins values, the source holds several entries; their conditions need not be identical. Identical values can stand only once. Like-named read-outs stand apart in the source and are kept apart here.
Experiments:
[1] = tested on: A549 cell line; test: SRB cytotoxicity assay, A549 lung cancer cell line; settings: Homo sapiens, A549, 72 h, read-out: Cytotoxicity IC50 value, A549 cell line
Experimental: (§1) All reagents and chemicals of analytical grade were obtained from Sigma (Dorset, UK); unless stated otherwise. All chemicals, reagents and solvents (of analytical grade) were used directly without further purification. MCF7 cell line ATCC® HTB-22™, T47D cell line ATCC® HTB-133™, K562 cell line ATCC® CCL-243™, Panc1 cell line ATCC® CRL-1469™. A375.S2 cell line ATCC® CRL-1872™, A549 cell line ATCC® CCL-185™, HELA cell line ATCC® CCL-2™ were cultured in Dulbecco’s modified eagle’s medium (DMEM). (DMEM) containing foetal bovine serum (FBS) (Bio Whittaker, Verviers, Belgium), 4-(2-hydroxyethyl)-1-piperazine ethane sulfonic acid (HEPES) Buffer, L-glutamine, gentamicin, penicillin, and streptomycin sulphate (Sigma, St. Luis, MO, USA), trypsin, trypan blue, Ciprofloxacin HCl from Aarti drugs Ltd/India, was a kind gift from Pharma International Company- Amman; Fluconazole from Neopharma, United Arab Emirates, a kind gift from Pharmaceutical Research Unit, Amman; Trypon soya agar (TSA), trypon soya broth (TSB), sabouraud dextrose agar (SDA) were obtained from Liofilchem (Italy) or Oxoid LTD (Basingstoke, England), they were reconstituted and sterilized by autoclave at 121 °C for 15 min.
(§2) The cytotoxicity measurements were determined using Sulforhodamine B (SRB) colorimetric assay for cytotoxicity screening. The mechanism of reduction of cell viability was adopted as described previously (Arabiyat et al., 2016a,b; 2017; Alabsi et al., 2018; Jumah, 2018; AlShahrabi et al., 2020). Human periodontal ligament fibroblasts (PDL) are a primary normal cell culture for verification of selective cytotoxicity. […] Selectivity ratio as indicative factor of the safety of compounds was calculated by dividing IC50 of tested compound on normal fibroblasts by IC50 of the same compound on specific pathological cell line (Hoffman et al., 2011).

[2] = tested on: A375.S2 cell line; test: SRB cytotoxicity assay, A375.S2 melanoma cell line; settings: Homo sapiens, A375-S2, 72 h, read-out: Cytotoxicity IC50 value, A375.S2 cell line
Experimental: as §1, §2

[3] = tested on: MCF7 cell line; test: SRB cytotoxicity assay, MCF7 breast cancer cell line; settings: Homo sapiens, MCF7, 72 h, read-out: Cytotoxicity IC50 value, MCF7 cell line
Experimental: as §1, §2

[4] = tested on: HELA cell line; test: SRB cytotoxicity assay, HELA cervical cancer cell line; settings: Homo sapiens, HeLa, 72 h
Experimental: as §1, §2

[5] = tested on: K562 cell line; test: SRB cytotoxicity assay, K562 leukaemia cell line; settings: Homo sapiens, K562, 72 h
Experimental: as §1, §2

[6] = tested on: PANC 1 cell line; test: SRB cytotoxicity assay, PANC 1 pancreatic cancer cell line; settings: Homo sapiens, PANC-1, 72 h, read-out: Cytotoxicity IC50 value, PANC 1 cell line
Experimental: as §1, §2

[7] = tested on: T47D cell line; test: cells; settings: Homo sapiens, T47D, 72 h, read-out: Cytotoxicity IC50 value, T47D cell line
Experimental: as §1, §2

[8] = tested on: PDL Fibroblasts; test: SRB cytotoxicity on normal periodontal ligament fibroblasts, selective cytotoxicity; assay type: cell-based, Human; settings: for IC50: Homo sapiens, Fibroblast, normal fibroblasts, SRB, 72 h, mean ± SD; for Selectivity index SI (A375.S2): IC50 on PDL fibroblasts divided by IC50 on A375.S2; for Selectivity index SI (K562): IC50 on PDL fibroblasts divided by IC50 on K562
Experimental: as §2

[9] = tested on: Staphylococcus aureus (S. aureus) ATCC 6538; test: Quantitative antimicrobial assessment (MIC) against S. aureus; assay type: cell-based; settings: for Antibacterial activity (in words): esters vs free acid, Gram positive strain context; for MIC: Staphylococcus aureus, ATCC6538, Gram positive, ATCC 6538
[10] = read-out: Cytotoxicity IC50 value, HELA cell line, SRB, 72 h, 0.1-200 μg/mL range, mean ± SD, value in brackets
[11] = read-out: Cytotoxicity IC50 value, HELA cell line, SRB, 72 h, 0.1-200 μg/mL range, mean ± SD, NI = lack of cytotoxicity in range
[12] = read-out: Cytotoxicity IC50 value, K562 cell line, SRB, 72 h, 0.1-200 μg/mL range, mean ± SD, value in brackets
[13] = read-out: Cytotoxicity IC50 value, K562 cell line, SRB, 72 h, 0.1-200 μg/mL range, mean ± SD, NI = lack of cytotoxicity in range
[14] = 0.1-200 μg/mL range, NI = lack of cytotoxicity in range

Row | SMILES | IC50 [1] | IC50 [2] | IC50 [3] | IC50 [4, 10] [µg/mL] | IC50 [4, 11] | IC50 [5, 12] [µg/mL] | IC50 [5, 13] | IC50 [6] | IC50 [7] | IC50 [8, 14] [µM] | IC50 ([8]; value in brackets) [µg/mL] | Selectivity index SI (A375.S2) [8] | Antibacterial activity (in words) [9] | Selectivity index SI (K562) [8] | MIC [9] [µM]
1 | Nc1c(NC2CCCCC2)c(F)cc2c(=O)c(C(=O)O)cn(C3CC3)c12 [8a, 8-amino-7-cyclohexylamino-1-cyclopropyl-6-fluoro-4-oxo-1,4-dihydro-quinoline-3-carboxylic acid] | 44 µM and 15.8 µg/mL | 3.69 µM and 1.33 µg/mL | > 200 µg/mL | 45 | 125 ± 21.9 µM | 24.4 | 67.9 ± 6.76 µM | 137 µM and 49.1 µg/mL | 148 µM and 53.2 µg/mL | 49.4 ± 2.71 | 17.8 | 12.48 |  |  | 
2 | O=C(O)c1cn(C2CC2)c2c([N+](=O)[O-])c(Cl)c(F)cc2c1=O [1A] | 57.9 µM and 20.4 µg/mL | 10 µM and 3.52 µg/mL | 3.32 µM and 1.17 µg/mL | 7.02 | 19.8 ± 1.48 µM |  | > 200 µg/mL | 59.1 µM and 21 µg/mL | > 200 µg/mL |  |  |  | incomparably appreciable activity |  | 
3 | COc1cccc(-n2nnc3c4c(cc(F)c32)c(=O)c(C(=O)O)cn4C2CC2)c1 [5b, 9-cyclopropyl-4-fluoro-3-(3-methoxy-phenyl)-6-oxo-6,9-dihydro-3H-[1,2, and 3] triazolo [4,5-h] quinoline-7-carboxylic acid] | 196 µM and 77.2 µg/mL | 364 µM and 143 µg/mL | 112 µM and 44.2 µg/mL | 26.3 | 66.9 ± 2.73 µM | 4.56 | 11.6 ± 0.61 µM | 178 µM and 70.2 µg/mL | 18 µM and 7.08 µg/mL | 143 ± 10.8 | 56.4 |  |  | 12.35 | 
4 | COc1cccc(Nc2c(F)cc3c(=O)c(C(=O)O)cn(C4CC4)c3c2N)c1 [4b, 8-amino-1-cyclopropyl-6-fluoro-7-(3-methoxy-phenylamino)-4-oxo-1,4-dihydro-quinoline-3-carboxylic acid] | 229 µM and 87.6 µg/mL | 120 µM and 46 µg/mL | 177 µM and 67.7 µg/mL |  |  | 6.5 | 17 ± 2.57 µM | 155 µM and 59.2 µg/mL | 149 µM and 57.2 µg/mL | 276 ± 20.2 | 106 |  |  | 16.25 | 0.024 (≈ 0.0092 µg/mL)
5 | O=C(O)c1cn(C2CC2)c2cc(N3CCNCC3)c(F)cc2c1=O [ciprofloxacin, reference compound] |  |  |  |  |  |  |  |  |  |  |  |  |  |  | 1.12 (≈ 0.371 µg/mL)
6 | CCOC(=O)c1cn(C2CC2)c2c([N+](=O)[O-])c(Nc3ccccc3OC)c(F)cc2c1=O [2A] |  |  |  |  |  |  |  |  |  |  |  |  | lacked antibacterial activity |  | 
7 | CCn1cc(C(=O)O)c(=O)c2cc(F)c(Nc3ccccc3OC)c(N)c21 [12a, 8-amino-1-ethyl-6-fluoro-7-(2-methoxy-phenylamino)-4-oxo-1,4-dihydro-quinoline-3-carboxylic acid] | > 200 µg/mL | 373 µM and 138 µg/mL | 125 µM and 46.5 µg/mL | 9.45 | 25.4 ± 3.92 µM | 7.79 | 21 ± 0.62 µM | 142 µM and 52.6 µg/mL | 83.5 µM and 31 µg/mL | 170 ± 15.1 | 63.2 |  |  | 8.10 | 
8 | CCc1ccc(Nc2c(F)cc3c(=O)c(C(=O)O)cn(C4CC4)c3c2[N+](=O)[O-])cc1 [3d, 1-cyclopropyl-6-fluoro-7-(4-ethyl-phenylamino)-8-nitro-4-oxo-1,4-dihydro-quinoline-3-carboxylic acid] | > 200 µg/mL | 372 µM and 153 µg/mL | > 200 µg/mL |  | > 200 µg/mL |  | > 200 µg/mL | > 200 µg/mL | > 200 µg/mL | 728 ± 119 | 300 | 1.95 |  |  | 

Source: PMC8325119, “A Novel Class of Functionalized Synthetic Fluoroquinolones with Dual Antiproliferative - Antimicrobial Capacities” (Asian Pacific Journal of Cancer Prevention : APJCP, 2021)
